Assay results reported in patent US6548516B1, “1-(3-heteroarylpropyl- or -prop-2-enyl)-4-benzylpiperidines used as NMDA receptor antagonists” (Merck Patent GmbH, priority 1998, dated 2003).

melting point [°C]	SMILES
202 to 203.5	O=c1[nH]c2ccc(C=CCN3CCC(Cc4ccc(F)cc4)CC3)cc2o1 [Example 2, 6-{3-[4-(4-fluorobenzyl)piperid-1-yl]propenyl}-3H-benzoxazol-2-one]
105 to 107	O=c1[nH]c2ccc(CCCN3CCC(Cc4ccc(F)cc4)CC3)cc2o1 [Example 1, 6-{3-[4-(4-fluorobenzyl)piperid-1-yl]propyl}-3H-benzoxazol-2-one]
